Read-outs that look alike come from different tables or passages of the source. Peptide text beside a SMILES is read from it.
Columns and labels:
[1] = system: Herpes Simplex Virus Type 1 (HSV-1); test: HSV-1 plaque assay on Vero cell monolayers; assay type: cell-based; settings: Table 10
Procedure: The screenings utilized a plaque assay in which 24-well plates containing Vero (monkey kidney) cell monolayers were overlaid with 400 μg/ml of each peptide or mixture in M-199V (medium and newborn calf serum). The plates were incubated for two hours at 37° C.
Each well was thereafter aspirated and immediately overlaid with 400 μg of peptide or mixture in DMEM-O (Dulbeco's modified Eagle's medium and pooled human gamma globulin) and incubated for 48 hours. […] At 48 hours, the plate wells were aspirated, rinsed, fixed and stained. Plaque formation, if present, was tallied and recorded.
The PFU's per well of six controls were averaged and represent 100 percent plaque formation at approximately 50 PFU's per well. The average PFU's per screened peptide or mixture (duplicate wells) quantitatively represented percent viral inhibition of plaque formation or infection. For example, a count of 10 PFU's of a screened peptide compared to the control of 50 PFU's would represent 20 percent plaque formation and 80 percent plaque inhibition.

[2] = system: Vero (monkey kidney) cell monolayers; assay type: cell-based
mAb 19B10 = test: competitive ELISA, inhibition of mAb 19B10 binding to plate-adsorbed peptide SEQ ID NO:89; settings: as the positions were defined
From the text: The antigenic determinant recognized by mAb 19B10 has the sequence Asp-Val-Pro-Asp-Tyr-Ala (SEQ ID NO:88). […].
Oligopeptide sets were screened in the general manner discussed previously, except that rather than using 400 mixture sets whose first two positions were defined and whose last four were equimolar mixtures for the first screen, 324 such N-acetyl C-amide sets were used based on mixtures of eighteen amino acids. Tryptophan and cysteine were not included with these mixture.

human red blood cells = assay type: cell-based
Procedure: Assays were carried out in 96-well culture tissue plates. Four wells per plate contained 125 μl of a non-peptide positive control of the surfactant Triton X-100 (poly)oxyethanol (9) octyl phenyl ether; 1 percent in deionized water!, and four wells per plate contained 115 μl of a control blank of phosphate-buffered saline (PBS). The hemolytic peptide melittin was used as comparative control. The controls served to detect possible contamination and to calculate the percent hemolysis of each peptide.
Human red blood cells (RBC's) were washed with PBS and centrifuged to separate them from the serum. The cells are then resuspended in PBS to a final suspension of 0.5 percent RBC. This suspension (125 μl) was added to the peptide mixture and control solutions. The plates were incubated at 37° C. for one hour and centrifuged at 2800 rpm for five minutes. The release of hemoglobin resulting from the cell lysis was determined by measuring the OD at 414 nm of 100 μl of the supernatant.

[3] = system: Staphylococcus aureus (ATCC 29213); test: microbe, parasite or virus in culture
Procedure: (§1) Escherichia coli (ATCC 25922) was used as Gram-negative (-) and Staphylococcus aureus (ATCC 29213) as Gram-positive (+) bacteria. Bacteria were grown overnight (about 18 hours) at 37° C. in Mueller-Hinton (MH) broth. This culture was reinoculated and incubated at 37° C. to reach the exponential phase of bacteria growth; i.e., a final bacterial suspension containing about 10^5 to 5×10^5 colony-forming units (CFU)/ml. The concentration of cells was established by plating 100 μl of different dilutions of the culture solution (e.g., 10^-2, 10^-3 and 10^-4) onto solid agar plates. Following an overnight (about 18 hours) incubation at 37° C., the CFU thus formed were counted on each agar plate.
(§2) 96-Well tissue culture plates were utilized, with eight wells per plate containing only medium as control blanks, whereas eight other wells contained medium plus cells as a positive growth control. These controls were used to detect possible medium contamination and to provide a measure of uninhibited growth of the microorganisms.
(§3) For initial screening studies, oligopeptide sets were added to the bacterial suspension to reach a final concentration of 1 mg/ml.
(§4) The plates were incubated overnight (about 18 hours) at 37° C., and the optical density (OD) determined at 620 nm after different times of incubation.

[4] = system: Escherichia coli (ATCC 25922); test: antimicrobial assay, growth inhibition of E. coli (OD 620 nm); assay type: cell-based; settings: Tables 1 and 2
Procedure: as §1, §2, §3, §4

[5] = target: monoclonal antibody (mAb) 125-10F3; test: competitive ELISA, inhibition of mAb 125-10F3 binding to plate-adsorbed polypeptide SEQ ID NO:1
From the text: Monoclonal antibody (mAb) 125-10F3 was used in these studies, which binds specifically to a 13-residue polypeptide […](SEQ ID NO:1) Appel et al., J. Immunol., 144:976-983 (1990)!. The antigenic determinant recognized by the mAb is Pro-Tyr-Pro-Asn-Leu-Ser (SEQ ID NO:2), determined previously using individual omission analogs of the polypeptide as is seen in FIG. 2.
The peptide library was screened utilizing a competitive ELISA system that measured the inhibition in solution of the binding of the mAb to polypeptide SEQ ID NO:1 adsorbed to an assay plate by each individual element of the synthetic combinatorial library. […] Screening data for an exemplary eighteen of the 400 sets are shown in FIG. 4, with arrows at the two best binding sequences.
The concentration of the inhibiting oligopeptide sets at which 50 percent of the mAb was inhibited in its binding to the polypeptide (IC-50) was determined.

[6] = system: Candida albicans ATCC 10231; test: antifungal assay, growth inhibition of C. albicans (OD 620 nm); assay type: cell-based; settings: Table 9
Procedure: Antifungal studies were carried out Candida albicans ATCC 10231 as the target microbe. The yeast culture was spread onto YM agar plates and incubated at 30° C. for 48 hours. Three colonies of this culture (about 1 mm in diameter each) were then inoculated in 5 ml of 1 X PBS solution. The suspension was vortexed and diluted 10-fold in YM broth, for an approximate final concentration of 10^5 to 5×10^5 CFU (colony forming units)/ml.
Actual concentrations of yeast cultures were determined by plating 100 μl of different solutions of the culture solution (10^-3, 10^-4 and 10^-5) onto solid YM agar plates. After 48 hours of incubation at 30° C., CFU formed were counted from each plate.
The assays were carried out in 96-well tissue culture plates. Eight wells containing only medium of YM broth served as negative controls, whereas eight wells containing medium and yeast culture served as positive controls. These controls were used to detect possible medium contamination and to provide a measure of uninhibited growth of the yeast.
For screening studies, oligopeptide mixtures were added to the yeast suspension in duplicates to reach a final concentration of 1.5 mg/ml. […] The plates were incubated over a period of 48 hours at 30° C., and the optical density (OD) at 24 and 48 hours was determined at 620 nm.

[7] = 7-mer studies, Tables 5 and 6 and parent 6-mer
[8] = later study completing the Ac-Tyr-Pro series ("in this study"), read-out: IC-50

Compound	concentration for 100 Percent Inhibition [1]	Toxic Concentration [2]	HD-50 (human red blood cells)	IC-50 ([3]; Tables 3 and 4)	MIC ([3]; Tables 3 and 4)	other results
CC(=O)N[C@@H](CCCNC(=N)N)C(=O)N[C@@H](CCCNC(=N)N)C(=O)N[C@@H](Cc1c[nH]c2ccccc12)C(=O)N[C@@H](Cc1c[nH]c2ccccc12)C(=O)N[C@@H](CS)C(=O)N[C@@H](CS)C(N)=O [RRWWCC] (Ac-RRWWCC-NH2)	1 µg/mL	10 µg/mL				
Ac-DVPDYA-NH2 [Ac-Asp-Val-Pro-Asp-Tyr-Ala-NH2]						IC50 (mAb 19B10): 30 nM
Ac-FRWLLF-NH2 [FRWLLF]			34 µg/mL	11 µg/mL	9 to 18 µg/mL	
Ac-FRWLLK-NH2 [FRWLLK]			356 µg/mL			IC-50 [4]: 5 µg/mL; MIC [4]: 5 to 10 µg/mL
Ac-FRWLLR-NH2 [FRWLLR]			171 µg/mL	13 µg/mL	24 to 48 µg/mL	IC-50 [4]: 4 µg/mL; MIC [4]: 5 to 10 µg/mL
Ac-IRRWWRF-NH2 [IRRWWRF]			142 µg/mL			IC-50 [3, 7]: 4.7 µg/mL; MIC [3, 7]: 4 to 8 µg/mL
Ac-PYPNLS-NH2 [Ac-Pro-Tyr-Pro-Asn-Leu-Ser-NH2]						IC50 ([5]; iterative screening and control study of Example 2, read-out: IC-50 (concentration at which 50 percent of the mAb was inhibited in its binding to the polypeptide)): 10 nM; IC50 [5, 8]: 40 nM
Ac-RRWWCA-NH2 [RRWWCA]	1 µg/mL	25 µg/mL		8.4 µg/mL	9 to 18 µg/mL	
Ac-RRWWCF-NH2 [RRWWCF]	5 µg/mL	10 µg/mL				
Ac-RRWWCG-NH2 [RRWWCG]	1 µg/mL	10 µg/mL				
Ac-RRWWCH-NH2 [RRWWCH]			128 µg/mL	6.2 µg/mL	5.5 to 11 µg/mL	
Ac-RRWWCK-NH2 [RRWWCK]	5 µg/mL	10 µg/mL	249 µg/mL	5.5 µg/mL	4.8 to 9.6 µg/mL	
Ac-RRWWCM-NH2 [RRWWCM]	1 µg/mL	10 µg/mL				
Ac-RRWWCW-NH2 [RRWWCW]			11 µg/mL	4.1 µg/mL	4.5 to 9.0 µg/mL	
Ac-RRWWCY-NH2 [RRWWCY]			50 µg/mL	5.4 µg/mL	4.7 to 9.5 µg/mL	
Ac-RRWWRFF-NH2 [RRWWRFF]			106 µg/mL			IC-50 [3, 7]: 4.7 µg/mL; MIC [3, 7]: 4 to 8 µg/mL
Ac-RRWWRFW-NH2 [RRWWRFW]			59 µg/mL			IC-50 [3, 7]: 2.5 µg/mL; MIC [3, 7]: 4 to 8 µg/mL
Ac-RRWWRR-NH2 [RRWWRR]	1 µg/mL	25 µg/mL				IC-50 [6]: 27.6 µg/mL; MIC [6]: 30 to 42 µg/mL
Ac-RRWWRW-NH2 [RRWWRW]	1 µg/mL	25 µg/mL				
Ac-WRRWWRF-NH2 [WRRWWRF]			158 µg/mL			IC-50 [3, 7]: 5.4 µg/mL; MIC [3, 7]: 4 to 8 µg/mL
Ac-YPNLSN-NH2 [Ac-Tyr-Pro-Asn-Leu-Ser-Asn-NH2]						IC50 [5, 8]: 150 nM; IC-50 value difference between the mixture (positions 1-5 of SEQ ID NO:15, position 6 mixture) and the single peptide ([5]; mixture inhibited better): about a factor of four
Ac-YRRWWRF-NH2 [YRRWWRF]			219 µg/mL			IC-50 [3, 7]: 4.5 µg/mL; MIC [3, 7]: 4 to 8 µg/mL

Reference: US5504190A, “Equimolar multiple oligomer mixtures, especially oligopeptide mixtures” (priority 1994, dated 1996)
